According to ChEMBL document CHEMBL3779783, “Short cationic lipopeptides as effective antibacterial agents: Design, physicochemical properties and biological evaluation” (Bioorg Med Chem, 2016):
Converted amounts (≈) assume the structure as drawn. The source made the active and inactive calls. No cut-off for these calls is given here. Non-standard residues stand in square brackets, D forms with d. Residues, ends and D or L forms follow the SMILES beside them. Groups on a side chain read outwards from the residue. ξ: configuration not given here. ξGly(decyl) = CCCCCCCCCCC(N)C(=O)O

Key:
Streptococcus pneumoniae = experiment: Antimicrobial activity against multidrug resistant Streptococcus pneumoniae ATCC 700677 after 20 hrs by microdilution assay; assay type: functional; settings: ATCC 700677, 20 h
Enterococcus faecium = experiment: Antimicrobial activity against multidrug resistant and high level vancomycin resistant Enterococcus faecium ATCC 51559 after 20 hrs by microdilution assay; assay type: functional; settings: ATCC 51559, 20 h
Staphylococcus aureus [1] = experiment: Antimicrobial activity against vancomycin-resistant Staphylococcus aureus NARSA VRS10 after 20 hrs by microdilution assay; assay type: functional; settings: NARSA VRS10, 20 h
Klebsiella pneumoniae [2] = experiment: Antimicrobial activity against Klebsiella pneumoniae ATCC 13883 after 20 hrs by microdilution assay; assay type: functional; settings: ATCC 13883, 20 h
[3] = Cytotoxicity against HEK293 cells after 24 hrs by MTT assay; assay type: cell-based; settings: human
[4] = Cytotoxicity against human HepG2 cells after 24 hrs by MTT assay; assay type: cell-based
Staphylococcus aureus [5] = experiment: Antimicrobial activity against clinical isolates of methicillin-resistant Staphylococcus aureus after 20 hrs by microdilution assay; assay type: functional
Staphylococcus aureus [6] = experiment: Antimicrobial activity against methicillin-resistant Staphylococcus aureus ATCC 43300 after 20 hrs by microdilution assay; assay type: functional; settings: ATCC 43300, 20 h
Klebsiella pneumoniae [7] = experiment: Antimicrobial activity against multidrug resistant Klebsiella pneumoniae ATCC 700603 after 20 hrs by microdilution assay; assay type: functional; settings: Klebsiella pneumoniae, 700603, 20 h
Escherichia coli = experiment: Antimicrobial activity against Escherichia coli ATCC 25922 after 20 hrs by microdilution assay; assay type: functional; settings: ATCC 25922, 20 h
Staphylococcus aureus [8] = experiment: Antimicrobial activity against clinical isolates of multi-resistant/methicillin-resistant Staphylococcus aureus after 20 hrs by microdilution assay; assay type: functional
Staphylococcus aureus [9] = experiment: Antimicrobial activity against vancomycin-resistant Staphylococcus aureus NARSA VRS4 after 20 hrs by microdilution assay; assay type: functional; settings: NARSA VRS4, 20 h
Acinetobacter baumannii = experiment: Antimicrobial activity against Acinetobacter baumannii […] after 20 hrs by microdilution assay; assay type: functional
Pseudomonas aeruginosa = experiment: Antimicrobial activity against Pseudomonas aeruginosa ATCC 27853 after 20 hrs by microdilution assay; assay type: functional; settings: ATCC 27853, 20 h
Staphylococcus aureus [10] = experiment: Antimicrobial activity against vancomycin-resistant Staphylococcus aureus NARSA VRS1 after 20 hrs by microdilution assay; assay type: functional; settings: NARSA VRS1, 20 h
Staphylococcus aureus [11] = experiment: Antimicrobial activity against methicillin-susceptible Staphylococcus aureus ATCC 25923 after 20 hrs by microdilution assay; assay type: functional; settings: ATCC 25923, 20 h
Staphylococcus aureus [12] = experiment: Antimicrobial activity against glycopeptide-intermediate Staphylococcus aureus NRS1 after 20 hrs by microdilution assay; assay type: functional; settings: NRS1, 20 h
Klebsiella pneumoniae [13] = experiment: Antimicrobial activity against NDM-1 positive Klebsiella pneumoniae BAA-2146 after 20 hrs by microdilution assay; assay type: functional; settings: ATCC BAA-2146, 20 h
Staphylococcus aureus [14] = experiment: Antimicrobial activity against glycopeptide-intermediate Staphylococcus aureus NRS17 after 20 hrs by microdilution assay; assay type: functional; settings: NRS17, 20 h
Enterococcus faecalis = experiment: Antimicrobial activity against clinical isolates of high level vancomycin-resistant Enterococcus faecalis after 20 hrs by microdilution assay; assay type: functional
Staphylococcus aureus [15] = experiment: Antimicrobial activity against methicillin-susceptible Staphylococcus aureus ATCC 25923 assessed as surface blebs at 16 times MIC after 3 hrs by transmission electron microscopic analysis; assay type: functional, organism-based
Staphylococcus aureus [16] = experiment: Antimicrobial activity against methicillin-susceptible Staphylococcus aureus ATCC 25923 assessed as blister appearance on cell surface at 16 times MIC after 3 hrs by transmission electron microscopic analysis; assay type: functional, organism-based

Structure (SMILES): CCCCCCCCCCC(NC(=O)C(CCCCCCCCCC)NC(=O)C(CCCCNC(=O)C(N)CCCCN)NC(=O)C(N)CCCCN)C(N)=O (centres undefined) (H-KK(Lys)[ξGly(decyl)][ξGly(decyl)]-NH2; configuration not given here)
- MIC (Streptococcus pneumoniae): 0.2 µM (≈ 0.159 µg/mL)
- MIC (Enterococcus faecium): 0.2 µM (≈ 0.159 µg/mL)
- MIC (Staphylococcus aureus [1]): 0.1 µM (≈ 0.0796 µg/mL)
- MIC (Klebsiella pneumoniae [2]): > 30 µM
- CC50 at 24 h [3]: > 15 µM
- CC50 at 24 h [4]: ≥ 15 µM
- MIC (Staphylococcus aureus [5]): 0.1 µM (≈ 0.0796 µg/mL)
- MIC (Staphylococcus aureus [6]): 0.1 µM (≈ 0.0796 µg/mL)
- MIC (Klebsiella pneumoniae [7]): > 30 µM
- MIC (Escherichia coli): 30 µM (≈ 23.9 µg/mL)
- MIC (Staphylococcus aureus [8]): 0.1 µM (≈ 0.0796 µg/mL)
- MIC (Staphylococcus aureus [9]): 0.2 µM (≈ 0.159 µg/mL)
- MIC (Acinetobacter baumannii): > 30 µM
- MIC (Pseudomonas aeruginosa): 30 µM (≈ 23.9 µg/mL)
- MIC (Staphylococcus aureus [10]): 0.1 µM (≈ 0.0796 µg/mL)
- MIC (Staphylococcus aureus [11]): 0.06 µM (≈ 0.0478 µg/mL)
- MIC (Staphylococcus aureus [12]): 0.1 µM (≈ 0.0796 µg/mL)
- MIC (Klebsiella pneumoniae [13]): > 30 µM
- MIC (Staphylococcus aureus [14]): 0.1 µM (≈ 0.0796 µg/mL)
- MIC (Enterococcus faecalis): 0.2 µM (≈ 0.159 µg/mL)

Structure (SMILES): CN[C@@H](CC(C)C)C(=O)N[C@H]1C(=O)N[C@@H](CC(N)=O)C(=O)N[C@H]2C(=O)N[C@H]3C(=O)N[C@H](C(=O)N[C@@H](C(=O)O)c4cc(O)cc(O)c4-c4cc3ccc4O)[C@H](O)c3ccc(c(Cl)c3)Oc3cc2cc(c3O[C@H]2O[C@@H](CO)[C@H](O)[C@@H](O)[C@@H]2O[C@@H]2C[C@@](C)(N)[C@@H](O)[C@@H](C)O2)Oc2ccc(cc2Cl)[C@H]1O
- MIC (Streptococcus pneumoniae): 0.7 µM (≈ 1.01 µg/mL)
- MIC (Enterococcus faecium): > 44 µM
- MIC (Staphylococcus aureus [1]): > 44 µM
- MIC (Staphylococcus aureus [5]): 5.5 µM (≈ 7.97 µg/mL)
- MIC (Staphylococcus aureus [6]): 0.6 µM (≈ 0.87 µg/mL)
- MIC (Staphylococcus aureus [8]): 1 µM (≈ 1.45 µg/mL)
- MIC (Staphylococcus aureus [9]): > 44 µM
- Activity (Staphylococcus aureus [15]): Active
- MIC (Staphylococcus aureus [10]): > 44 µM
- MIC (Staphylococcus aureus [11]): 0.7 µM (≈ 1.01 µg/mL)
- MIC (Staphylococcus aureus [12]): 1 µM (≈ 1.45 µg/mL)
- MIC (Staphylococcus aureus [14]): 2.8 µM (≈ 4.06 µg/mL)
- Activity (Staphylococcus aureus [16]): Active
- MIC (Enterococcus faecalis): > 44 µM

Structure (SMILES): CCCCCCCCCCC(NC(=O)C(CCCCN)NC(C)=O)C(N)=O (centres undefined)
- MIC (Streptococcus pneumoniae): > 30 µM
- MIC (Enterococcus faecium): > 30 µM
- MIC (Staphylococcus aureus [1]): > 30 µM
- MIC (Klebsiella pneumoniae [2]): > 30 µM
- CC50 at 24 h [3]: > 15 µM
- CC50 at 24 h [4]: > 15 µM
- MIC (Staphylococcus aureus [5]): > 30 µM
- MIC (Staphylococcus aureus [6]): > 30 µM
- MIC (Klebsiella pneumoniae [7]): > 30 µM
- MIC (Escherichia coli): > 30 µM
- MIC (Staphylococcus aureus [8]): > 30 µM
- MIC (Staphylococcus aureus [9]): > 30 µM
- MIC (Acinetobacter baumannii): > 30 µM
- MIC (Pseudomonas aeruginosa): > 30 µM
- MIC (Staphylococcus aureus [10]): > 30 µM
- MIC (Staphylococcus aureus [11]): > 30 µM
- MIC (Staphylococcus aureus [12]): > 30 µM
- MIC (Klebsiella pneumoniae [13]): > 30 µM
- MIC (Staphylococcus aureus [14]): > 30 µM
- MIC (Enterococcus faecalis): 30 µM (≈ 11.5 µg/mL)

Structure (SMILES): CCCCCCCCCCC(NC(=O)C(CCCCCCCCCC)NC(=O)C(CCCCNC(=O)C(CCCCN)NC(C)=O)NC(=O)C(CCCCN)NC(C)=O)C(N)=O (centres undefined) (Ac-KK([Lys-Ac])[ξGly(decyl)][ξGly(decyl)]-NH2; configuration not given here)
- MIC (Streptococcus pneumoniae): 2.8 µM (≈ 2.46 µg/mL)
- MIC (Enterococcus faecium): 0.9 µM (≈ 0.792 µg/mL)
- MIC (Staphylococcus aureus [1]): 1.9 µM (≈ 1.67 µg/mL)
- MIC (Klebsiella pneumoniae [2]): > 30 µM
- CC50 at 24 h [3]: > 15 µM
- CC50 at 24 h [4]: > 15 µM
- MIC (Staphylococcus aureus [5]): 5.6 µM (≈ 4.93 µg/mL)
- MIC (Staphylococcus aureus [6]): 0.9 µM (≈ 0.792 µg/mL)
- MIC (Klebsiella pneumoniae [7]): > 30 µM
- MIC (Escherichia coli): > 30 µM
- MIC (Staphylococcus aureus [8]): 2.8 µM (≈ 2.46 µg/mL)
- MIC (Staphylococcus aureus [9]): 2.8 µM (≈ 2.46 µg/mL)
- MIC (Acinetobacter baumannii): 30 µM (≈ 26.4 µg/mL)
- MIC (Pseudomonas aeruginosa): 30 µM (≈ 26.4 µg/mL)
- MIC (Staphylococcus aureus [10]): 1.9 µM (≈ 1.67 µg/mL)
- MIC (Staphylococcus aureus [11]): 3.75 µM (≈ 3.3 µg/mL)
- MIC (Staphylococcus aureus [12]): 7.5 µM (≈ 6.6 µg/mL)
- MIC (Klebsiella pneumoniae [13]): > 30 µM
- MIC (Staphylococcus aureus [14]): 7.5 µM (≈ 6.6 µg/mL)
- MIC (Enterococcus faecalis): 0.9 µM (≈ 0.792 µg/mL)
